Reference: patent publication US8410170B2, “Use of isothiocyanates compounds in treating prostatic diseases and skin cancer” (Wuxi JC Pharmaceutical Technology Co., Ltd., priority 2005, dated 2013)

Key:
Sp1 = biological target: T1, Sp1 (Homo sapiens, UniProt P08047); assay: Mobility gel shift assay (EMSA) of Sp1-DNA binding; assay type: cell-based; settings: AD cells exposed 24 hrs
T1 construct: endogenous in cells; host or cells: LNCaP AD cells, nuclear extract
Protocol: EMSA was performed according to modern technology. […] The extraction of nuclear proteins was performed as described previously (Wang, L. G., Liu, X. M., Kreis, W., and Budman, D. R. Down-regulation of prostate-specific antigen expression by finasteride through inhibition of complex formation between androgen receptor and steroid receptor-binding consensus in the promoter of the PSA gene in LNCaP cells. Cancer Res, 57: 714-719, 1997). Five μg of nuclear proteins was reacted for 30 minutes at room temperature with the [^32P]-labeled Sp1 oligonucleotide or their corresponding mutants oligonucleotide probe in binding buffer containing […] dIdC to increase the specificity of the reaction. The reaction mixtures were then subjected to electrophoresis in 8% native polyacrylamide gel(PAGE). The binding complexes were visualized by exposing the dried gel to X-ray film.

androgen-induced BPH = assay: Therapeutic effects on BPH: Test Two (castrated rats, testosterone propionate; weights and histopathology); assay type: in vivo, SD rats
Protocol: Thirty-six male SD rats were randomly divided into 4 groups, nine each. Group 1 was served as blank control group (pseudo-surgery control group) in which animals were under the same surgical procedures except no testis was sectioned and fed normally. Groups from 2 to 4 were served as treatment groups in which all animals were anesthetized using ketamine and castrated by removing both testises under sterile conditions. After the surgery, the penicillin was injected to prevent the animals from infection. One week later, the testosterone propionate was injected subcutaneously at dose of 5 mg/kg, once a day for a month. […] Group 3 was served as positive control group in which animals were given Proscar by gavage at dose of 0.1 mg/rat/day for a month beginning on the same day that the testosterone propionate was injected.
Twenty-four hrs after the last dose, the animals were euthanized and weighed. Volume and weight of prostate were measured. The averages of prostate volume/weight and organ coefficient (average weight of prostate/average of body weight) were calculated, and statistical analysis performed (t test).
Prostate tissues of animals from different groups were embedded with paraffin. The tissue sections were stained with H&E for histpathological examination by an anatomical pathologist.

BPH = assay: Therapeutic effects on BPH: Test One (castrated rats, testosterone propionate); assay type: in vivo, SD rats; settings: for Average Weight of Prostate: one month
Protocol: Sixty male SD rats were randomly divided into 6 groups, ten each. The animals were anesthetized using ketamine and castrated by removing testis under sterile conditions. After the surgery, the penicillin was injected to prevent the animals from infection. One week later, the testosterone propionate was injected subcutaneously at dose of 1 mg/rat for a month, once a day. Group 1 was served as a negative control group, and the animals of group 1 were given saline orally without any active pharmaceutical ingredient for a month beginning on the same day the testosterone propionate was injected. Group 2 was served as positive control group in which animals were given estradiol subcutaneously at a dose of 0.1 mg/rat for a month beginning on the same day the testosterone propionate was injected. Groups from 3 to 6 was served as drug treatment groups in which animals were given tested articles on the same day the testosterone propionate was injected.
Twenty-four hrs after the last dosage, the animals were euthanized and weighed. Volume and weight of prostate were measured. The averages of volume/weight and organ coefficient (average weight of prostate/average of body weight) were calculated, and statistical analysis performed (t test).

PSA = assay: Western blot to detect PSA in LNCaP cells; assay type: cell-based, human; settings: 24 hrs
Protocol: The cells were harvested, washed and total cellular proteins were extracted as described previously (as Example 2). Fifty μg proteins were then subjected to electrophoresis in SDS-PAGE, electro-transferred to nitrocellulose filters, and immunoblotted initially with antibodies against AR, Sp1, and PSA. The same membranes were stripped and re-probed with β-actin for loading control. The result was recorded by ECL films.

[1] = system: human prostate cancer cell line LNCaP; assay: MTT and SRB cell growth assay, LNCaP; assay type: cell-based
Protocol: MTT and SRB method as described in the reference (Kreis, Budman et al. 1997). Briefly, human prostate cancer cells grown exponentially were aliquoted into 96-well plates at a density of 5000 cells/200 μl per well. Twenty-four hrs after the incubation, the cells were exposed for three or seven days to serial dilutions of indicated isothiocyanate. After the incubation, 100 μl of the medium was removed from each of the wells and 50 μl solution of 3-(4,5-dimethyl-thiazol-2-yl)-2,5-diphenyltetrazolium bromide (MTT) was added, the cells were incubated for an additional 4 hrs and then 200 μl of 0.04 N HCl-isopropanol was added to each well to dissolve the black formazan precipitates. The absorbance was measured at wavelength 540 nm. For SRB method, remove the medium after 72 hrs. The cells on 96-well dishes were fixed with 10% trichloride acetic acid for 1 hr, air-dried for 24 hrs. The cells were then stained with 50 μl of SRB (sulforhodamine B) for […]. After extensive washes with 1% acetic acid for 5 times, air-dried, the purple protein-SRB complex was dissolved in 200 μl 10 mM Tris-HCl buffer (pH 10.0), and the absorbance was measured at the wavelength of 540 and 630 nm. The percent of cell survival (T/C%) were calculated based on the results of test groups to that of the control group. The semi-exponential curves of the percent of cell survival (T/C%) to the drug concentrations (FIG. 8) and IC50 were obtained by using Sigma-plot program.

T1 sequence (P08047 whole entry): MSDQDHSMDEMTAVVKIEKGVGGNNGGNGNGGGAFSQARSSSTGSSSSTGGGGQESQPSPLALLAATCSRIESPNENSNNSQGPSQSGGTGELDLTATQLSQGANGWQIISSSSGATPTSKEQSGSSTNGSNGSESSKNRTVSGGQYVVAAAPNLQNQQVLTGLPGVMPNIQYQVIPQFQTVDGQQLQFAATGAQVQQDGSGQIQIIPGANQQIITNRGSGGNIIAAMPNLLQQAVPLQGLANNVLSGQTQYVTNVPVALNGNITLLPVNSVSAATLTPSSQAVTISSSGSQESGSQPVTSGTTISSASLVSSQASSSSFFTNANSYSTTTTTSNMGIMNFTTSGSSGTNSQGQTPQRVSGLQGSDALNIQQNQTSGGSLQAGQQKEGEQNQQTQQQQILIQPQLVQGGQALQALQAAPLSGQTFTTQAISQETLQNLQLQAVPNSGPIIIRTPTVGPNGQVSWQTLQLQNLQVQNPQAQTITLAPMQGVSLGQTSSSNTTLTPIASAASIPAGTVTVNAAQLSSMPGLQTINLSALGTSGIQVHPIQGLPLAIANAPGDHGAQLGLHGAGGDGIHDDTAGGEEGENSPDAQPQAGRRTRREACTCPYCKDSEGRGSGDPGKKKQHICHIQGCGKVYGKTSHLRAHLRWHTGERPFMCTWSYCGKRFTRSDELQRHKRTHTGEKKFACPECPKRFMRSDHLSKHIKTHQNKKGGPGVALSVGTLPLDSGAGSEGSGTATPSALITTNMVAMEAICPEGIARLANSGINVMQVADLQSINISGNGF

`S=C=NCCc1ccccc1` [PEITC, phenethyl isothiocyanate] was tested, and the “binding activity to Sp1 specific oligonucleotide of nuclear proteins (EMSA)” value (Sp1) was “significantly reduced”, the “Average Body Weight” value (androgen-induced BPH; PEITC 2 mg/kg oral (Example 13-11), one month) was 337 ± 23.7 g and the “Average Volume of Prostate” value (androgen-induced BPH; PEITC 2 mg/kg oral, one month) was 1.42 ± 0.16 cm^3. The “Average Weight of Prostate” value (androgen-induced BPH; PEITC 2 mg/kg oral, one month) was 1.20 ± 0.16 g, the “Inhibition of Organ Coefficient” value (androgen-induced BPH; PEITC 2 mg/kg oral, one month) was 16.28% and the “Organ Coefficient” value (androgen-induced BPH; PEITC 2 mg/kg oral, one month) was 0.36 ± 0.06%. The “Acinar Density: no. of animals with score 0” value (androgen-induced BPH; PEITC 2 mg/kg, 9 animals) was 7, the “Acinar Density: no. of animals with score +” value (androgen-induced BPH; PEITC 2 mg/kg, 9 animals) was 2 and the “Acinar Density: no. of animals with score ++” value (androgen-induced BPH; PEITC 2 mg/kg, 9 animals) was 0. The “Acinar Density: no. of animals with score +++” value (androgen-induced BPH; PEITC 2 mg/kg, 9 animals) was 0, the “Connective tissue proliferation, or papillary hyperplasia: no. of animals with score 0” value (androgen-induced BPH; PEITC 2 mg/kg, 9 animals) was 8 and the “Connective tissue proliferation, or papillary hyperplasia: no. of animals with score +” value (androgen-induced BPH; PEITC 2 mg/kg, 9 animals) was 1. For the same molecule, the “Connective tissue proliferation, or papillary hyperplasia: no. of animals with score ++” value (androgen-induced BPH; PEITC 2 mg/kg, 9 animals) was 0, the “Connective tissue proliferation, or papillary hyperplasia: no. of animals with score +++” value (androgen-induced BPH; PEITC 2 mg/kg, 9 animals) was 0 and the “Enlargement of Lumen of Gland: no. of animals with score 0” value (androgen-induced BPH; PEITC 2 mg/kg, 9 animals) was 3. For the same molecule, the “Enlargement of Lumen of Gland: no. of animals with score +” value (androgen-induced BPH; PEITC 2 mg/kg, 9 animals) was 6, the “Enlargement of Lumen of Gland: no. of animals with score ++” value (androgen-induced BPH; PEITC 2 mg/kg, 9 animals) was 0 and the “Enlargement of Lumen of Gland: no. of animals with score +++” value (androgen-induced BPH; PEITC 2 mg/kg, 9 animals) was 0. The “Histopathological score of BPH, Average X ± SD” value (androgen-induced BPH; PEITC 2 mg/kg, 9 animals) was 1.78 ± 1.09, the “Secretions of Gland: no. of animals with score 0” value (androgen-induced BPH; PEITC 2 mg/kg, 9 animals) was 3 and the “Secretions of Gland: no. of animals with score +” value (androgen-induced BPH; PEITC 2 mg/kg, 9 animals) was 5. For the same molecule, the “Secretions of Gland: no. of animals with score ++” value (androgen-induced BPH; PEITC 2 mg/kg, 9 animals) was 1, the “Secretions of Gland: no. of animals with score +++” value (androgen-induced BPH; PEITC 2 mg/kg, 9 animals) was 0 and the “lumen, secretary materials in the lumen and density of prostatic acinars, versus untreated BPH tissues (slide)” value (androgen-induced BPH; PEITC 2 mg/kg, FIG. 6.5) was “reduced”. The “Average Weight of Prostate” value (BPH; aqueous base formulation (Example 13-11), 1 mg/kg gavage) was 0.75 g, the “Average Weight of Prostate” value (BPH; aqueous base formulation (Example 13-11), 4 mg/kg gavage) was 0.83 g and the Organ Coefficient (BPH; aqueous base formulation, 1 mg/kg) was 0.21%. For the same molecule, the Organ Coefficient (BPH; aqueous base formulation, 4 mg/kg) was 0.23%, the “Average Weight of Prostate” value (BPH; oil base formulation (Example 13-3), 1 mg/kg gavage) was 0.91 g and the “Average Weight of Prostate” value (BPH; oil base formulation (Example 13-3), 4 mg/kg gavage) was 0.79 g. The Organ Coefficient (BPH; oil base formulation, 1 mg/kg) was 0.25%, the Organ Coefficient (BPH; oil base formulation, 4 mg/kg) was 0.23% and the “expression of PSA (Western blot)” value (PSA) was “significantly inhibited”. For the same molecule, the “Percent of Cell Survival (T/C %)” value ([1]; 0.0390 μM, LNCaP) was 102.60%, the “Percent of Cell Survival (T/C %)” value ([1]; 0.0780 μM, LNCaP) was 102.10% and the “Percent of Cell Survival (T/C %)” value ([1]; 0.1562 μM, LNCaP) was 88.10%. The “Percent of Cell Survival (T/C %)” value ([1]; 0.3125 μM, LNCaP) was 82.25%, the “Percent of Cell Survival (T/C %)” value ([1]; 0.6250 μM, LNCaP) was 82.25% and the “Percent of Cell Survival (T/C %)” value ([1]; 1.2500 μM, LNCaP) was 78.12%. The “Percent of Cell Survival (T/C %)” value ([1]; 2.5000 μM, LNCaP) was 30.24%, the “Percent of Cell Survival (T/C %)” value ([1]; 5.0000 μM, LNCaP) was 10.06% and the “Percent of Cell Survival (T/C %)” value ([1]; 10.0000 μM, LNCaP) was 1.52%. The “Percent of Cell Survival (T/C %)” value ([1]; 20.0000 μM, LNCaP) was 0.56%, the IC50 ([1]; Homo sapiens, LNCaP, MTT and SRB, read-out: IC50, growth inhibition) was 0.8 to 1.5 µM and the “inhibitory effect on growth of human prostate cancer cells stronger than B16 cells” value ([1]; LNCaP versus B16) was 8-10 times.
